Assay results from US20230225972A1 (priority 2020, published 2023).

Test system: influenza
Parameters: species or system Mice
Conditions: mouse, in vivo

## Nc1nc2c(ncn2[C@@H]2O[C@@H]3COP(=O)(O)O[C@H]4[C@@H](O)[C@H](n5cnc6c(=O)[nH]c(N)nc65)O[C@@H]4COP(=O)(O)O[C@H]3[C@H]2O)c(=O)[nH]1 [c-di-GMP]
  viral replication in the nose: facilitate reduction of viral replication in the nose
